For data set [1], the target named is T1, HIV-1 RT wild type (WT) enzyme (Human immunodeficiency virus type 1 group M subtype B, UniProt P03367).
T1 construct: Reverse transcriptase enzyme from the LAV strain of Human Immunodeficiency Virus (HIV-1) (1) was isolated from the bacterial strain JM109; made in house; host or cells: E. coli JM109 (clone pBRTprt1+ in vector pIBI21, lac promoter)
The data set is described as follows: Reverse Transcriptase (RT) Assay, wild type enzyme (RNA-dependent DNA polymerase activity). Type of data set: biochemical, Human Immunodeficiency Virus (HIV-1). The note with it: 1 µM compound, read-out: Reverse Transciptase Assay % inhibition (1 µM) WT.

Another data set can be described thus: MTT assay (cytotoxicity). It counts as cell-based. The note with it: human; H9 cells; five days incubation. As to the method:
In order to roughly assess the cytotoxicity of the compounds provided by the invention, several such compounds were tested in the MTT Assay described below. Compounds having a relatively high CC50 are preferred.
The MTT [3-(4,5-dimethylthiazol-2-yl)-2,5 diphenyl tetrazolium bromide) assay is based on cleavage of tetrazolium bromide by metabolically active cells, resulting in a highly quantitative blue color. This assay has been previously described (1) but has been optimized for the purposes of the testing reported herein.
The H9 cell line (2), an established human lymphoma suspension cell line grown in RPMI 1640 supplemented with 10% fetal bovine serum, is used as the target cell line in the assay. Cells (100µL) are plated in microtest plate wells at a concentration of 10^5 cells per mL in the presence of varying concentrations of inhibitor. The cells are incubated at 37°C in a humidified CO2 incubator. Five days later, 20µL of MTT (5mg/mL in RPMI 1640, sonicated, 0.2 micron filtered, and stored at 4°C) is added to each well. After 4 hours additional incubation at 37°C, 60µL of Triton-X is added to each well and thoroughly mixed to aid the solubilization of the crystals. Absolute ethanol (5µL) is added to each well and the resulting mixture is incubated for 30 minutes at 60°C and immediately read on a plate reader (Dynatech) at a wavelength of 570nm.
Data from this assay are used to generate a nonlinear regression analysis which yields an CC50.
Background: Formazan colour is commonly taken as a measure of viable cells.

As a reminder, the inhibition is the change of the read-out against control, counted positive when it falls. In general, CC50 refers to the concentration at which the toxic effect on the cells reaches its halfway point. Lower therefore signals greater toxicity to the cells.

A value given as a limit tells only on which side of the number the result lay.

With `CCN1c2ncccc2C(=O)N(C)c2ccc(-c3cn[nH]c3)nc21` [Example 1, 5,11-Dihydro-11-ethyl-5-methyl-2-(4-pyrazolyl)-6H-dipyrido[3,2-b:2'3'-e][1,4]diazepin-6-one], the inhibition at 1 µM in data set [1] came to 97%. Moreover, in the data set “MTT assay (cytotoxicity)”, the CC50 at 120 h is over 60 µM.
Taken in the same sequence, the figures for `CN1C(=O)c2cccnc2N(C2CC2)c2nc(-c3cn[nH]c3)ccc21` [Example 6, 5,11-Dihydro-5-methyl-11-c-propyl-2-(4-pyrazolyl)-6H-dipyrido[3,2-b:2',3'-e][1,4]diazepin-6-one] were 94% and over 60 µM.
As to `CCN1c2ncccc2C(=O)N(C)c2ccc(-c3cc[nH]c3)nc21` [Example 12, 5,11-Dihydro-11-ethyl-5-methyl-2-(3-pyrrolyl)-6H-dipyrido[3,2-b:2',3'-e][1,4]diazepin-6-one], the inhibition at 1 µM in data set [1] was found to be 95%. In “MTT assay (cytotoxicity)”, the CC50 at 120 h is over 50 µM.
The matching figures for `CN1C(=O)c2cccnc2N(C2CC2)c2nc(-c3cc[nH]c3)ccc21` [Example 25, 11-Cyclopropyl-5,11-dihydro-5-methyl-2-(3-pyrrolyl)-6H-dipyrido[3,2-b:2',3'-e][1,4]diazepin-6-one]: 92% and over 80 µM.
